Article PMC7927014, “Novel Small Molecule Hsp90/Cdc37 Interface Inhibitors Indirectly Target K-Ras-Signaling” (Cancers, 2021)

Assays:
MDA-MB-231 microtumors = experiment: Chick chorioallantoic membrane (CAM) microtumor assay; format: in vivo, chick embryo; conditions: 5 days
Protocol: The fertilized eggs were incubated at 37 °C in a 55% to 60% humidified egg hatcher incubator (MG100, Fiem). After 8 days, 2 million MDA-MB-231 cells were resuspended in 1× PBS and Matrigel (BD Biosciences) at a ratio of 1:1, and were then deposited within sterilized 7 mm diameter plastic rings cut from a plastic pipette (cat. no. LW4111, Alpha Laboratories Limited) on a surface of chicken embryo CAM. The xenografted tumors were treated with 20 µL 0.1% DMSO vehicle control or the test compound diluted in 1× PBS once a day, starting from 24 h after cell seeding. The microtumors were harvested after 5 days of treatment. The microtumors were collected in pre-weighted 1.5 mL Eppendorf tubes containing 500 µL PBS, and the tumor mass was determined by the difference of the weights.

Hsp90/Cdc37 = experiment: FIMM screening in split Renilla luciferase assay with hypomorphic NRL-Hsp90 construct, 20 μM; format: biochemical; conditions: for Average RLU (FIMM Screening-1): DMSO 50019
Protocol: In the second in silico screening of the FIMM database, we employed the four identified chemical scaffolds (Figure S2B) for the visual inspection of the FIMM compound library. […] All of the purchased compounds were validated in vitro at 20 μM using the split Renilla luciferase assay.
The Hsp90/Cdc37 split Renilla luciferase assay using the full length Hsp90 for the compound screening was described previously. […] After 48 h, the cells were trypsinized and washed with PBS. The harvested cells were lysed in 1 mL of the 1x lysis buffer provided in the Renilla Luciferase Reporter Assay System Kit from Promega (cat. E2820), and were incubated on ice for 10 min. The cell lysates were then cleared by centrifugation at 13,000× g for 1 min. […] After this, the screening/test compounds or DMSO—as indicated—were added to each well. In total, 5 µL NRL-Hsp90- or NRL-N-Hsp90-lysate was added to each well, one row at a time. Subsequently, the plate was incubated for 5 min at room temperature (RT). […] Just before the reading, 20 µL assay buffer containing 2× Renilla luciferase substrate (coelenterazine) was added. For the FIMM screening, sample wells were read on a PHERAstar plate reader (BMG LABTECH) at a gain level of 4000, after 10 s shaking, using a hypomorph of NRL-Hsp90. For the subsequent validations of the compounds, sample wells with the above-described assay constructs were read using a synergy H1 Hybrid Multi-Mode reader (BioTek) in the luminescence detection mode, as described previously in detail.

Hsp90, Hsp70 = experiment: Western blotting of Hsp90 and Hsp70 (heat shock response); format: cell-based; conditions: Western blot, 24 h; four cancer cell lines; 17-AAG 2 μM
Protocol: The cells in the RIPA buffer were placed on ice for 20 min, and were then sonicated in ice cold water for 5 min. […] Equal amounts of protein were separated by 10% SDS-PAGE, and were then transferred onto a nitrocellulose membrane (cat. no. NBA 083C001EA, Protran) using a wet transfer system (Bio-Rad) or semidry Transferblot Turbo Transfer System (Bio-Rad). After the transfer, the membranes were blocked for 30 min in 5% skimmed milk dissolved in 1× TBST, and then incubated with 1:2000 primary antibodies in 5% BSA in TBST at 4 °C overnight.
The next day, the membranes were washed three times in TBST for 10 min, and then incubated with secondary antibodies (1:5000) diluted in 5% skimmed milk in TBST for 1 h at RT. […] All of the antigens and molecular weights in kDa are labelled next to the blots on the figures. Uncropped Western blot data are attached as Figure S6.

MIA PaCa-2 cells = experiment: Tumorosphere assay (low adhesion, serum-free 3D spheroid culture); format: cell-based; conditions: Homo sapiens; MIA PaCa-2 (pancreas), low attachment, serum-free, 72 h; read-out: 3D spheroid formation IC50
Protocol: (§1) Per well, 2000 cells were seeded in flat bottom 96-well suspension culture plates (cat. no. 655185, Cellstar, Greiner Bio-One) in 100 µL DMEM or RPMI media containing 1× B27 (cat. no. 17504044, Gibco, Thermo Fisher Scientific), 25 ng/mL EGF (cat. no. E9644, Sigma-Aldrich), and 25 ng/mL FGF (cat. no. RP-8628, Thermo Fisher Scientific), 20% MethoCult H4100 (cat. no. 04100, […] Technologies). After 2 days, 50 µL media containing 0.3% DMSO or 3× the concentration of the indicated compounds were added to the wells in a 1:2 dilution-series, starting at 100 µM. After 72 h of treatment, 10% (v/v) alamarBlue reagent (cat. no. DAL1100, Thermo Fisher Scientific) was added to each well. Then, the fluorescence intensity (excitation 560 nm and emission 590 nm) was measured after 4 h using a H1 Hybrid Multi-Mode reader (BioTek).

HCC-44 cells = experiment: as above; format: cell-based; conditions: Homo sapiens, HCC44; HCC-44 (lung, G12C), low attachment, serum-free, 72 h; read-out: 3D spheroid formation IC50
Protocol: as §1

MDA-MB-231 cells = experiment: as above; format: cell-based; conditions: Homo sapiens, MDA-MB-231, 72 h; read-out: 3D spheroid formation IC50
Protocol: as §1

SK-BR-3 cells = experiment: as above; format: cell-based; conditions: Homo sapiens; SK-BR-3 (breast, n.a.), low attachment, serum-free, 72 h; read-out: 3D spheroid formation IC50
Protocol: as §1

Hsp90α (N-terminal) = target: T1, Hsp90α (N-terminal) (Homo sapiens, UniProt P07900); experiment: Hsp90 N-terminal ATP-binding site competition assay (FITC-geldanamycin fluorescence polarization)
T1 construct: purchased BPS Bioscience 50298
Protocol: The reaction was initiated by adding 35 ng/μL purified recombinant Hsp90α, and was incubated at RT with slow shaking for 2 h. All of the reactions were performed in a black, low binding NUNC microtiter plate, included in the kit, and the total reaction volume was 50 μL. The enzyme control was measured without the test compound, and the enzyme background control was measured without the test compound or Hsp90α. […] All of the controls and the blank contained 10% DMSO, as did all of the samples of the test compounds. All of the samples were analyzed as duplicates. […] The blank value was subtracted from all of the other values, and the fluorescence polarization was determined as:(1) mP = ((III − I⊥)/(III+ I⊥)) × 1000 where III is the intensity of the parallel, and I┴ the intensity of the perpendicular polarized light.

Row | Structure (SMILES) | microtumor growth on CAM (MDA-MB-231 microtumors; MDA-MB-231, 10 μM) | normalized RLU (FIMM Screening-1) (Hsp90/Cdc37; DMSO = 1.00) | normalized RLU (FIMM Screening-2, scaffold based) (Hsp90/Cdc37; DMSO = 1.00) | Average RLU (FIMM Screening-1) (Hsp90/Cdc37; mean of 3 wells) [RLU] | Average RLU (FIMM Screening-2, scaffold based) (Hsp90/Cdc37; mean of 3 wells, DMSO 51006) [RLU] | induction of Hsp90 or Hsp70 expression (heat shock response) (Hsp90, Hsp70) | microtumor growth on CAM (MDA-MB-231 microtumors; MDA-MB-231, 20 μM) | IC50 (MIA PaCa-2 cells) [µM] | IC50 (HCC-44 cells) [µM] | IC50 (MDA-MB-231 cells) [µM] | IC50 (SK-BR-3 cells) [µM] | competition with FITC-geldanamycin (ATP-pocket binding, polarization signal) (Hsp90α (N-terminal); 20 μM compound) | competition with FITC-geldanamycin (ATP-pocket binding, polarization signal) (Hsp90α (N-terminal); up to 50 μM (12.5, 25, 50 μM))
1 | C/C1=C\[C@H](C)C[C@H](C)[C@H](Cc2cnco2)OC(=O)/C(C)=C/[C@H](C)C[C@H](C)[C@H](Cc2cnco2)OC1=O [conglobatin A, reference compound] | significantly reduced | 0.51 | 0.49 | 25349 | 25048 |  |  |  |  |  |  |  | 
2 | CCOc1ccc(C(=O)c2ccc(O)c(O)c2O)cc1 [×1540, 2,3,4-TRIHYDROXY-4'-ETHOXYBENZOPHENONE] |  | 0.76 |  | 37962 |  | not inducing | significantly reduced | 53 ± 6 | 52 ± 6 | 58 ± 5 | 64 ± 5 | None of these four compounds displaced | did not do so
3 | N=C(CSS(=O)(=O)O)NCC12CC3CC(CC(C3)C1)C2 [×6506, [({N-[(adamantan-1-yl)methyl]carbamimidoyl}methyl)sulfanyl]sulfonic acid] |  |  |  |  |  | not inducing | significantly reduced | 30 ± 3 | 67 ± 5 | 26 ± 1 | 36 ± 4 | None of these four compounds displaced | did not do so
